Measured values as given in ChEMBL document CHEMBL1687791, “Identification and characterization of four azole-resistant erg3 mutants of Candida albicans” (2010).
Values after ≈ are worked out from the molar mass of the structure shown.

Legend:
Assay type in all cases: functional
[1] = tested on: Candida albicans; test: Antifungal activity against Candida albicans isolate 6 by broth microdilution method
[2] = tested on: Candida albicans; test: Antifungal activity against Candida albicans isolate 177 by broth dilution method
[3] = tested on: Candida albicans; test: Antifungal activity against Candida albicans isolate 490 harboring ERG3 D147G, T330A, A351V and ERG11 F72S, T229A, E266D, N440S, V488I, R523G mutant genes by broth microdilution method
[4] = tested on: Candida albicans; test: Antifungal activity against Candida albicans isolate 14 by broth microdilution method
[5] = tested on: Candida albicans; test: Antifungal activity against Candida albicans isolate 488 harboring ERG3 H243N, T330A, A351V and ERG11 D225G, E266D, E391G, V488I mutant genes by broth microdilution method
[6] = tested on: Candida albicans; test: Antifungal activity against Candida albicans isolate 1008 harboring ERG3 K97E, L193P, V237A, A351V, A353T and ERG11 E266D mutant genes by broth microdilution method
[7] = tested on: Candida albicans; test: Antifungal activity against Candida albicans isolate 12 harboring ERG3 W332R mutant gene by broth microdilution method
[8] = tested on: Candida albicans; test: Antifungal activity against Candida albicans isolate 14 by broth microdilution method in presence of 10 uM drug efflux inhibitor FK506
[9] = tested on: Candida albicans; test: Antifungal activity against Candida albicans isolate 12 harboring ERG3 W332R mutant gene assessed as eburicol content in total sterol composition at 0.5 times MIC by GC-MS analysis
[10] = tested on: Candida albicans; test: Antifungal activity against Candida albicans isolate 177 assessed as ergosterol content in total sterol composition at 0.5 times MIC by GC-MS analysis
[11] = tested on: Candida albicans; test: Antifungal activity against Candida albicans isolate 488 harboring ERG3 H243N, T330A, A351V and ERG11 D225G, E266D, E391G, V488I mutant genes assessed as eburicol content in total sterol composition at 0.5 times MIC by GC-MS analysis
[12] = tested on: Candida albicans; test: Antifungal activity against Candida albicans isolate 177 assessed as eburicol content in total sterol composition at 0.5 times MIC by GC-MS analysis
[13] = tested on: Candida albicans; test: Antifungal activity against Candida albicans isolate 1008 harboring ERG3 K97E, L193P, V237A, A351V, A353T and ERG11 E266D mutant genes assessed as lanosterol/obtusifoliol content in total sterol composition at 0.5 times MIC by GC-MS analysis
[14] = tested on: Candida albicans; test: Antifungal activity against Candida albicans isolate 14 assessed as lanosterol/obtusifoliol content in total sterol composition at 0.5 times MIC by GC-MS analysis
[15] = tested on: Candida albicans; test: Antifungal activity against Candida albicans isolate 488 harboring ERG3 H243N, T330A, A351V and ERG11 D225G, E266D, E391G, V488I mutant genes assessed as 14alpha-methyl fecosterol content in total sterol composition at 0.5 times MIC by GC-MS analysis
[16] = tested on: Candida albicans; test: Antifungal activity against Candida albicans isolate 14 assessed as 14alpha-methylergosta-8,24(28)-dien-3beta,6alpha-diol content in total sterol composition at 0.5 times MIC by GC-MS analysis
[17] = tested on: Candida albicans; test: Antifungal activity against Candida albicans isolate 12 harboring ERG3 W332R mutant gene assessed as 14alpha-methylergosta-8,24(28)-dien-3beta,6alpha-diol content in total sterol composition at 0.5 times MIC by GC-MS analysis
[18] = tested on: Candida albicans; test: Antifungal activity against Candida albicans isolate 6 assessed as eburicol content in total sterol composition at 0.5 times MIC by GC-MS analysis
[19] = tested on: Candida albicans; test: Antifungal activity against Candida albicans isolate 490 harboring ERG3 D147G, T330A, A351V and ERG11 F72S, T229A, E266D, N440S, V488I, R523G mutant genes by broth microdilution method in presence of 10 uM drug efflux inhibitor FK506
[20] = tested on: Candida albicans; test: Antifungal activity against Candida albicans isolate 12 harboring ERG3 W332R mutant gene assessed as lanosterol/obtusifoliol content in total sterol composition at 0.5 times MIC by GC-MS analysis
[21] = tested on: Candida albicans; test: Antifungal activity against Candida albicans isolate 12 harboring ERG3 W332R mutant gene assessed as ergosterol content in total sterol composition at 0.5 times MIC by GC-MS analysis
[22] = tested on: Candida albicans; test: Antifungal activity against Candida albicans isolate 490 harboring ERG3 D147G, T330A, A351V and ERG11 F72S, T229A, E266D, N440S, V488I, R523G mutant genes assessed as ergosterol content in total sterol composition at 0.5 times MIC by GC-MS analysis
[23] = tested on: Candida albicans; test: Antifungal activity against Candida albicans isolate 1008 harboring ERG3 K97E, L193P, V237A, A351V, A353T and ERG11 E266D mutant genes assessed as ergosta 7,22-dienol content in total sterol composition at 0.5 times MIC by GC-MS analysis
[24] = tested on: Candida albicans; test: Antifungal activity against Candida albicans isolate 488 harboring ERG3 H243N, T330A, A351V and ERG11 D225G, E266D, E391G, V488I mutant genes assessed as ergosterol content in total sterol composition at 0.5 times MIC by GC-MS analysis
[25] = tested on: Candida albicans; test: Antifungal activity against Candida albicans isolate 1008 harboring ERG3 K97E, L193P, V237A, A351V, A353T and ERG11 E266D mutant genes by broth microdilution method in presence of 10 uM drug efflux inhibitor FK506
[26] = tested on: Candida albicans; test: Antifungal activity against Candida albicans isolate 12 harboring ERG3 W332R mutant gene by broth microdilution method in presence of 10 uM drug efflux inhibitor FK506
[27] = tested on: Candida albicans; test: Antifungal activity against Candida albicans isolate 177 by broth dilution method in presence of 10 uM drug efflux inhibitor FK506
[28] = tested on: Candida albicans; test: Antifungal activity against Candida albicans isolate 1008 harboring ERG3 K97E, L193P, V237A, A351V, A353T and ERG11 E266D mutant genes assessed as eburicol content in total sterol composition at 0.5 times MIC by GC-MS analysis
[29] = tested on: Candida albicans; test: Antifungal activity against Candida albicans isolate 488 harboring ERG3 H243N, T330A, A351V and ERG11 D225G, E266D, E391G, V488I mutant genes by broth microdilution method in presence of 10 uM drug efflux inhibitor FK506
[30] = tested on: Candida albicans; test: Antifungal activity against Candida albicans isolate 1008 harboring ERG3 K97E, L193P, V237A, A351V, A353T and ERG11 E266D mutant genes assessed as 14alpha-methyl fecosterol content in total sterol composition at 0.5 times MIC by GC-MS analysis
[31] = tested on: Candida albicans; test: Antifungal activity against Candida albicans isolate 488 harboring ERG3 H243N, T330A, A351V and ERG11 D225G, E266D, E391G, V488I mutant genes assessed as lanosterol/obtusifoliol content in total sterol composition at 0.5 times MIC by GC-MS analysis
[32] = tested on: Candida albicans; test: Antifungal activity against Candida albicans isolate 6 by broth microdilution method in presence of 10 uM drug efflux inhibitor FK506
[33] = tested on: Candida albicans; test: Antifungal activity against Candida albicans isolate 6 assessed as ergosterol content in total sterol composition at 0.5 times MIC by GC-MS analysis
[34] = tested on: Candida albicans; test: Antifungal activity against Candida albicans isolate 12 harboring ERG3 W332R mutant gene assessed as 14alpha-methyl fecosterol content in total sterol composition at 0.5 times MIC by GC-MS analysis
[35] = tested on: Candida albicans; test: Antifungal activity against Candida albicans isolate 490 harboring ERG3 D147G, T330A, A351V and ERG11 F72S, T229A, E266D, N440S, V488I, R523G mutant genes assessed as 14alpha-methylergosta-8,24(28)-dien-3beta,6alpha-diol content in total sterol composition at 0.5 times MIC by GC-MS analysis
[36] = tested on: Candida albicans; test: Antifungal activity against Candida albicans isolate 490 harboring ERG3 D147G, T330A, A351V and ERG11 F72S, T229A, E266D, N440S, V488I, R523G mutant genes assessed as 14alpha-methyl fecosterol content in total sterol composition at 0.5 times MIC by GC-MS analysis
[37] = tested on: Candida albicans; test: Antifungal activity against Candida albicans isolate 177 assessed as 14alpha-methyl fecosterol content in total sterol composition at 0.5 times MIC by GC-MS analysis
[38] = tested on: Candida albicans; test: Antifungal activity against Candida albicans isolate 14 assessed as ergosterol content in total sterol composition at 0.5 times MIC by GC-MS analysis
[39] = tested on: Candida albicans; test: Antifungal activity against Candida albicans isolate 6 assessed as 14alpha-methylergosta-8,24(28)-dien-3beta,6alpha-diol content in total sterol composition at 0.5 times MIC by GC-MS analysis
[40] = tested on: Candida albicans; test: Antifungal activity against Candida albicans isolate 177 assessed as 14alpha-methylergosta-8,24(28)-dien-3beta,6alpha-diol content in total sterol composition at 0.5 times MIC by GC-MS analysis

C[C@@H]1[C@H](O)[C@@H](C)/C=C/C=C/C=C/C=C/C=C/C=C/C=C/[C@H](O[C@@H]2O[C@H](C)[C@@H](O)[C@H](N)[C@@H]2O)C[C@@H]2O[C@](O)(C[C@@H](O)C[C@@H](O)[C@H](O)CC[C@@H](O)C[C@@H](O)CC(=O)O[C@H]1C)C[C@H](O)[C@H]2C(=O)O [AMPHOTERICIN B]
MIC [1]: 0.25 µg/mL (≈ 0.271 µM) | MIC [2]: 0.25 µg/mL (≈ 0.271 µM) | MIC [3]: 0.25 µg/mL (≈ 0.271 µM) | MIC [4]: 0.25 µg/mL (≈ 0.271 µM) | MIC [5]: 0.25 µg/mL (≈ 0.271 µM) | MIC [6]: 1 µg/mL (≈ 1.08 µM) | MIC [7]: 0.5 µg/mL (≈ 0.541 µM)

Clc1ccccc1C(c1ccccc1)(c1ccccc1)n1ccnc1 [CLOTRIMAZOLE]
MIC [1]: 1 µg/mL (≈ 2.9 µM) | MIC [2]: 1 µg/mL (≈ 2.9 µM) | MIC [3]: 1 µg/mL (≈ 2.9 µM) | MIC [4]: 0.0625 µg/mL (≈ 0.181 µM) | MIC [5]: 1 µg/mL (≈ 2.9 µM) | MIC [6]: 1 µg/mL (≈ 2.9 µM) | MIC [7]: 1 µg/mL (≈ 2.9 µM)

CCC(C)n1ncn(-c2ccc(N3CCN(c4ccc(OCC5COC(Cn6cncn6)(c6ccc(Cl)cc6Cl)O5)cc4)CC3)cc2)c1=O (stereo not drawn) [ITRACONAZOLE]
MIC [1]: 16 µg/mL (≈ 22.7 µM) | MIC [2]: 16 µg/mL (≈ 22.7 µM) | MIC [3]: > 16 µg/mL | MIC [4]: 0.0625 µg/mL (≈ 0.0886 µM) | MIC [5]: > 16 µg/mL | MIC [6]: > 16 µg/mL | MIC [7]: > 16 µg/mL

CC(=O)N1CCN(c2ccc(OCC3COC(Cn4ccnc4)(c4ccc(Cl)cc4Cl)O3)cc2)CC1 (stereo not drawn) [KETOCONAZOLE]
MIC [1]: 16 µg/mL (≈ 30.1 µM) | MIC [2]: 16 µg/mL (≈ 30.1 µM) | MIC [3]: 8 µg/mL (≈ 15.1 µM) | MIC [4]: 0.0625 µg/mL (≈ 0.118 µM) | MIC [5]: 8 µg/mL (≈ 15.1 µM) | MIC [6]: > 16 µg/mL | MIC [7]: > 16 µg/mL

C[C@@H](c1ncncc1F)[C@](O)(Cn1cncn1)c1ccc(F)cc1F [VORICONAZOLE]
MIC [8]: < 0.0625 µg/mL | Activity [9]: 9.9% | Activity [10]: 45% | Activity [11]: 7.5% | Activity [12]: 5% | Activity [13]: 19% | Activity [14]: 24.1% | Activity [15]: 57.2% | MIC [1]: 16 µg/mL (≈ 45.8 µM) | Activity [16]: 28.6% | Activity [17]: 1.8% | Activity [18]: 4.8% | MIC [19]: 0.0625 µg/mL | Activity [20]: 16.2% | MIC [2]: 16 µg/mL (≈ 45.8 µM) | MIC [3]: > 16 µg/mL | Activity [21]: 2.9% | Activity [22]: 6.3% | MIC [4]: 0.0625 µg/mL (≈ 0.179 µM) | MIC [5]: > 16 µg/mL | Activity [23]: 2.2% | Activity [24]: 8% | MIC [25]: > 16 µg/mL | MIC [26]: > 16 µg/mL | MIC [27]: < 0.0625 µg/mL | Activity [28]: 13.7% | MIC [29]: 0.0625 µg/mL | Activity [30]: 65.1% | Activity [31]: 15.8% | MIC [32]: < 0.0625 µg/mL | Activity [33]: 46.1% | Activity [34]: 69.2% | MIC [6]: > 16 µg/mL | Activity [35]: 13.5% | Activity [36]: 69.1% | Activity [37]: 2.9% | Activity [38]: 47.3% | Activity [39]: 37.2% | Activity [40]: 35.4% | MIC [7]: > 16 µg/mL
